Drawing on patent US10562869B2, “Oxadiazole compounds” (REMYND NV, priority 2014, dated 2020), this text covers EC50 for 26 compounds.

In this assay the test system is M17_3SYN cells. Description: Paraquat-induced cytotoxicity (LDH) in α-synuclein over-expressing M17_3SYN neuroblastoma cells. Format: cell-based, human. As to conditions: Homo sapiens, Neuroblastoma cell, 48 h, toxicity inhibition (LDH) in M17_3SYN cells challenged with 6 mM paraquat, 2 days; read-out: SYN EC50. The text has this: A α-synuclein expression plasmid was constructed by subcloning the NcoI/XhoI fragment from 212T-SYN(WT) (Griffioen et al., Biochem Biophys Acta (2006) 1762(3):312-318) containing the cDNA of human wild type α-synuclein correspondingly into a standard mammalian expression vector pcDNA3.1 resulting in plasmid pcDNA3.1-SYNwt. Plasmids pcDNA3.1 and pcDNA3.1-SYNwt were transfected into human neuroblastoma cells (BE-M17; ATCC No. CRL-2267™) using lipofectamine reagent and subsequently, independent clonal cell lines with the plasmids stably integrated into the genome were selected by antibiotic resistance selection (Geneticin (G418)), resulting in cell lines M17.pcDNA3 and M17_3SYN. Overexpression of α-synuclein in the M17_3SYN cell line was confirmed by Western blot analysis.
Due to the high levels of α-synuclein, M17_3SYN cells were sensitive to paraquat, a well-known risk factor Parkinson's disease and of synuclein-dependent neuronal degeneration. Cytotoxicity of cells was measured by quantification of lactate dehydrogenase (LDH) levels. In dead cells, LDH leaked out of the cells into the medium due to a loss of plasma-membrane integrity.
[…], primary pre-cultures of M17.pcDNA3 (as possible control) and M17_3SYN cells were prepared, starting from a stock culture, at a density of 20.000-40.000 cells/cm2 in culture medium (Opti-MEM® Reduced Serum Medium with Phenol Red (Invitrogen, Cat. 31985-047) supplemented with 10% FCS, 1 mM sodium pyruvate, 1×NEAA, 500 μg/ml G418 and 0.5×antibiotic/antimycotic (ABAM)). 3 days later these primary pre-cultures were used as a starting point to make secondary pre-cultures at a density of 50.000-100.000 cells/cm^2. At the day of the experiment these secondary precultures were diluted to ˜0.5·10^6 cells/ml in detection medium (Opti-MEM® Reduced-Serum Medium without Phenol Red (Invitrogen, Cat. 11085-021) supplemented with 10% FCS, 1 mM sodium pyruvate, 1×NEAA, 500 μg/ml G418 and 0.5×ABAM) and 60 μL of this suspension was dispensed per well into a 96-well microtiter plate. After 3 hours of incubation at 37° C./5% CO2 an equal volume of detection medium containing a final concentration of 6 mM Paraquat was added and subsequently incubated for 2 days at 37° C./5% CO2. Then LDH activity was determined using the Promega Cytotox 96 Non-Radioactive cytotoxicity assay (Promega, Cat. G1780), according to the manufacturer's instructions. Cytotoxicity was defined as the ratio of LDH relative to the total LDH in the cells and supernatant.
The assay described above using the M17_3SYN cell line allowed screening compounds for their ability to decrease cytotoxicity in PQ-challenged cells. Compounds of the invention were tested for their ability to decrease toxicity at different concentrations, ranging from low non-effective concentrations to high effective concentrations. Afterwards, a dose-dependent inhibition curve was used to calculate the EC50. A compound was considered to be active in this test when it inhibited toxicity by more than 20% relative to untreated M17_3SYN cells at a concentration of 10 μM or lower.

As for `O=S(=O)(c1ccc(OC(F)F)cc1)N1CCN(c2nc(C3C[C@@H]4CC[C@H]3C4)no2)CC1` (stereo partly drawn) [Cmpd192, 3-((1 S,4R)-bicyclo[2.2.1]heptan-2-yl)-5-(4-((4-(difluoromethoxy)phenyl)sulfonyl)piperazin-1-yl)-1,2,4-oxadiazole], the EC50 was 164 nM.

For the compound `CCOc1ccc(S(=O)(=O)N2CCN(c3nc(CC4CC4)no3)CC2)cc1` [Cmpd162, 3-(Cyclopropylmethyl)-5-(4-((4-ethoxyphenyl)sulfonyl)piperazin-1-yl)-1,2,4-oxadiazole], the EC50 is 224 nM.

In the case of `COc1ccc(S(=O)(=O)N2CCN(c3nc(CCC(F)(F)F)no3)CC2)cc1` [Cmpd171, 5-(4-((4-Methoxyphenyl)sulfonyl)piperazin-1-yl)-3-(3,3,3-trifluoropropyl)-1,2,4-oxadiazole], the EC50 came out at 248 nM.

`COc1ccc(S(=O)(=O)N2CCN(c3nc(Cc4cccc(F)c4)no3)CC2)cc1` [Cmpd084, 1-[3-(3-Fluoro-benzyl)-[1,2,4]oxadiazol-5-yl]-4-(4-methoxy-benzenesulfonyl)-piperazine]: the EC50 is 5 nM.

As to `COc1ccc(S(=O)(=O)N2CCN(c3nc(Cc4ccc(F)c(F)c4)no3)CC2)cc1` [Cmpd099, 1-[3-(3,4-Difluoro-benzyl)-[1,2,4]oxadiazol-5-yl]-4-(4-methoxy-benzenesulfonyl)-piperazine], the EC50 was determined as 16 nM.

For `COc1ccc(S(=O)(=O)N2CCN(c3nc(C4C[C@@H]5CC[C@H]4C5)no3)CC2)cc1` (stereo partly drawn) [Cmpd190, 3-((1S,4R)-bicyclo[2.2.1]heptan-2-yl)-5-(4-((4-methoxyphenyl)sulfonyl)piperazin-1-yl)-1,2,4-oxadiazole], the EC50 came out at 215 nM.

Regarding `COc1ccc(S(=O)(=O)N2CCN(c3nc(COc4cccc(Cl)c4)no3)CC2)cc1` [Cmpd201, 3-((3-Chlorophenoxy)methyl)-5-(4-((4-methoxyphenyl)sulfonyl)piperazin-1-yl)-1,2,4-oxadiazole], the EC50 came out at 11 nM.

`COc1ccc(S(=O)(=O)N2CCN(c3nc(COc4ccccc4)no3)CC2)cc1` [Cmpd202, 5-(4-((4-Methoxyphenyl)sulfonyl)piperazin-1-yl)-3-(phenoxymethyl)-1,2,4-oxadiazole]: the EC50 is 11 nM.

As to `COc1ccc(S(=O)(=O)N2CCN(c3nc(C4(c5ccc(Cl)cc5)CC4)no3)CC2)cc1` [Cmpd138, 1-{3-[1-(4-Chloro-phenyl)-cyclopropyl]-[1,2,4]oxadiazol-5-yl}-4-(4-methoxy-benzenesulfonyl)-piperazine], the EC50 turned out to be 39 nM.

In the case of `COc1ccc(S(=O)(=O)N2CCN(c3nc(C4CCCCC4)no3)CC2)cc1` [Cmpd210, 3-Cyclohexyl-5-(4-((4-methoxyphenyl)sulfonyl)piperazin-1-yl)-1,2,4-oxadiazole], the EC50 worked out at 327 nM.

In the case of `O=S(=O)(c1ccc(OC(F)F)cc1)N1CCN(c2nc(CCC(F)(F)F)no2)CC1` [Cmpd173, 5-(4-((4-(Difluoromethoxy)phenyl)sulfonyl)piperazin-1-yl)-3-(3,3,3-trifluoropropyl)-1,2,4-oxadiazole], the EC50 came to 438 nM.

Turning to `O=S(=O)(c1ccc(OC(F)F)cc1)N1CCN(c2nc(Cc3cccc(Cl)c3)no2)CC1` [Cmpd074, 1-[3-(3-Chloro-benzyl)-[1,2,4]oxadiazol-5-yl]-4-(4-difluoromethoxy-benzenesulfonyl)-piperazine], the EC50 came out at 10 nM.

For the compound `CSc1ccc(S(=O)(=O)N2CCN(c3nc(CCC(F)(F)F)no3)CC2)cc1` [Cmpd172, 5-(4-((4-(Methylthio)phenyl)sulfonyl)piperazin-1-yl)-3-(3,3,3-trifluoropropyl)-1,2,4-oxadiazole], the EC50 was 166 nM.

Regarding `COc1ccc(S(=O)(=O)N2CCN(c3nc(C(C)(C)c4ccccc4)no3)CC2)cc1` [Cmpd197, 1-(4-Methoxy-benzenesulfonyl)-4-[3-(1-methyl-1-phenyl-ethyl)-[1,2,4]oxadiazol-5-yl]-piperazine], the EC50 was found to be 2 nM.

With `O=S(=O)(c1ccc2c(c1)CCO2)N1CCN(c2nc(Cc3cccc(F)c3)no2)CC1` [Cmpd095, 1-(2,3-Dihydro-benzofuran-5-sulfonyl)-4-[3-(3-fluoro-benzyl)-[1,2,4]oxadiazol-5-yl]-piperazine], the EC50 turned out to be 89 nM.

For `COc1ccc(S(=O)(=O)N2CCN(c3nc(Cc4ccc(Cl)cc4)no3)CC2)cc1` [Cmpd052, 1-[3-(4-Chloro-benzyl)-[1,2,4]oxadiazol-5-yl]-4-(4-methoxy-benzenesulfonyl)-piperazine], the EC50 was 24 nM.

`CCOc1ccc(S(=O)(=O)N2CCN(c3nc(C(F)(F)c4ccc(Cl)cc4)no3)CC2)cc1` [Cmpd143, 1-{3-[(4-Chloro-phenyl)-difluoro-methyl]-[1,2,4]oxadiazol-5-yl}-4-(4-ethoxy-benzenesulfonyl)-piperazine]: the EC50 stood at 25 nM.

As for `CC[C@H](c1ccccc1)c1noc(N2CCN(S(=O)(=O)c3ccc(OC)cc3)CC2)n1` [Cmpd051, 1-(4-Methoxy-benzenesulfonyl)-4-[3-((R)-1-phenyl-propyl)-[1,2,4]oxadiazol-5-yl]-piperazine], the EC50 stood at 46 nM.

`O=S(=O)(c1ccc(OC(F)F)cc1)N1CCN(c2nc(Cc3ccc(Cl)cc3)no2)CC1` [Cmpd054, 1-[3-(4-Chloro-benzyl)-[1,2,4]oxadiazol-5-yl]-4-(4-difluoromethoxy-benzenesulfonyl)-piperazine]: the EC50 came out at 19 nM.

For the compound `COc1ccc(S(=O)(=O)N2CCN(c3nc(C(C)(C)c4cccc(Cl)c4)no3)CC2)cc1` [Cmpd152, 1-{3-[1-(3-Chloro-phenyl)-1-methyl-ethyl]-[1,2,4]oxadiazol-5-yl}-4-(4-methoxy-benzenesulfonyl)-piperazine], the EC50 was 1 nM.

In the case of `CC(C)Oc1ccc(S(=O)(=O)N2CCN(c3nc(Cc4cccc(F)c4)no3)CC2)cc1` [Cmpd093, 1-[3-(3-Fluoro-benzyl)-[1,2,4]oxadiazol-5-yl]-4-(4-isopropoxy-benzenesulfonyl)-piperazine], the EC50 came to 326 nM.

For `O=S(=O)(c1ccc(OC(F)F)cc1)N1CCN(c2nc(CC(F)(F)F)no2)CC1` [Cmpd167, 5-(4-((4-(Difluoromethoxy)phenyl)sulfonyl)piperazin-1-yl)-3-(2,2,2-trifluoroethyl)-1,2,4-oxadiazole], the EC50 came to 10000 nM.

Consider `O=S(=O)(c1ccc(OC(F)F)cc1)N1CCN(c2nc(CC3CC3)no2)CC1` [Cmpd160, 3-(Cyclopropylmethyl)-5-(4-((4-(difluoromethoxy)phenyl)sulfonyl)piperazin-1-yl)-1,2,4-oxadiazole], for which the EC50 came to 148 nM.

As to `COc1ccc(S(=O)(=O)N2CCN(c3nc(CC(F)(F)F)no3)CC2)cc1` [Cmpd165, 5-(4-((4-Methoxyphenyl)sulfonyl)piperazin-1-yl)-3-(2,2,2-trifluoroethyl)-1,2,4-oxadiazole], the EC50 turned out to be 32 nM.

In the case of `COc1ccc(S(=O)(=O)N2CCN(c3nc(Cc4ccnc(C)c4)no3)CC2)cc1` [Cmpd169, 1-(4-Methoxy-benzenesulfonyl)-4-[3-(2-methyl-pyridin-4-ylmethyl)-[1,2,4]oxadiazol-5-yl]-piperazine], the EC50 worked out at 34 nM.

For the compound `CC(C)(c1ccc(F)cc1)c1noc(N2CCN(S(=O)(=O)c3ccc(OC(F)F)cc3)CC2)n1` [Cmpd114, 1-(4-Difluoromethoxy-benzenesulfonyl)-4-{3-[1-(4-fluoro-phenyl)-1-methyl-ethyl]-[1,2,4]oxadiazol-5-yl}-piperazine], the EC50 is 17 nM.
